The record followed here is patent US20130123107A1, “Use of Adjuvants to Improve Abscisic Acid Performance” (Valent BioSciences Corporation, priority 2007, published 2013).

Structures can show the parent of a compound that is named as a salt.

The test system of this experiment is tomato leaf transpiration. Nature of the experiment: tomato leaf transpiration inhibition bioassay. The class given is in vivo, Tomato (variety: Rutgers). The text has this:
The compositions of the present invention improve ABA effectiveness by incorporating a surfactant, and optionally a nitrogen-containing fertilizer together with an effective amount of the plant growth regulator abscisic acid (S-ABA; ABA; S-(+)-abscisic acid; +-ABA, (+)-(S)-cis, trans-abscisic acid, (+)-(S)-cis,trans-ABA; S-ABA; (S)-5-(1-hydroxy-2,6,6,-trimethyl-4-oxo-2-cyclohexen-1-yl)-3-methyl-(2Z,4E)-pentadienoic acid; CAS registry no, [21293-29-8]). ABA effectiveness may be measured experimentally by quantifying the inhibition of transpiration in tomato leaves. This is a reliable laboratory bioassay of the level of ABA activity.
Preparation of plant specimens for use in the treatment studies of the examples described was carried out as follows. Tomato (variety: Rutgers) seeds were sown in an 18-cell flat filled with Promix PGX (available from Premier Horticulture Inc. Quakertown, Pa.) and grown for 3 weeks to allow for germination and initial growth. Plants were then transplanted into pots (18 cm in diameter and 18 cm in height), filled with Promix BX (available from Premier Horticulture Inc. Quakertown, Pa.), and grown for one or two more weeks before treatment, depending on temperature and available light. Plants received daily irrigation and weekly fertilizer (1 g/L all purpose fertilizer 20-20-20, available from The Scotts Company, Marysville, Ohio).
All treatment solutions were prepared with distilled water, ABA (95% active ingredient) is available from Lomon BioTechnology Co., Ltd. (Shichuan, China). […]
Unless otherwise specified, when a surfactant was employed, it was incorporated into the 250-ppm ABA treatment solution at a concentration of 0.05% to 0.5% (v/v).
ABA solutions and blank treatments were applied to the aerial parts of tomato plant leaves at the rate of 20 mL per 6 plants. Plants were then placed in a transparent chamber with humidity controlled within the range of 40 to 60% relative humidity. Leaf transpiration rates were measured at 1, 2 and 3 days; at 1, 2, 3 and 4 days; or at 1, 2, 3, 4 and 7 days after treatment. Measurements were conducted using a LI-1600 Steady State Porameter (LI-Cor, Lincoln, Nebr.). Each day the transpiration rate of the plants of each treatment group was normalized to the percentage of the transpiration rate of untreated plants (plants sprayed with water only) in order to control for day-to-day variability caused by changes of environmental conditions such as light intensity and temperature. In some cases, data of each plant was averaged over a 3-day period to balance the short term and long-term effect of ABA on tomato leaf transpiration as well as to control for experimental variability.
All experiments were conducted using a randomized complete block experimental design. Data were analyzed by analysis of variance. Duncan's new multiple range tests at α-005 were used for mean separations.

For `CC1=CC(=O)CC(C)(C)[C@@]1(O)/C=C/C(C)=C\C(=O)O` [ABA ammonium salt, Ammonium Salt of (S)-(+)-Abscisic Acid], the “Transpiration rate (% of control)” value reads like this: (250 ppm ABA or ABA ammonium salt, 1 day after treatment (Table 7)) 68 % of control; (250 ppm ABA or ABA ammonium salt, 2 days after treatment (Table 7)) 73 % of control; (250 ppm ABA or ABA ammonium salt, 3 days after treatment (Table 7)) 84 % of control; (250 ppm ABA or salt at rates equivalent to 250 ppm ABA, 1 day after treatment (Table 10)) 58 % of control; (250 ppm ABA or salt at rates equivalent to 250 ppm ABA, 2 days after treatment (Table 10)) 67 % of control; (250 ppm ABA or salt at rates equivalent to 250 ppm ABA, 3 days after treatment (Table 10)) 78 % of control. The “Transpiration rate (% of control), Average” value (250 ppm ABA or ABA ammonium salt, average of days 1-3 after treatment (Table 7)) is given as 75 % of control and the “Transpiration rate (% of control), Average” value (250 ppm ABA or salt at rates equivalent to 250 ppm ABA, average of days 1-3 (Table 10)) is listed as 68 % of control.
